# Test results taken from patent US6838237B2, “Antigenically reactive regions of the hepatitis a virus polyprotein” (The United States of America as represented by the …, priority 1996, dated 2005).
# Key:
# anti-HAV-negative sera = assay: EIA for anti-HAV: synthetic peptides reacted with anti-HAV-negative sera; assay type: binding, human; settings: experiment 1: sera 1:100, cutoff P/N 3.0
# From the text: (§1) All anti-HAV-positive and anti-HAV-negative sera were randomly selected from a collection reposited at the Centers for Disease Control and Prevention, Atlanta, Ga. Serum specimens were collected from anti-HAV-positive patients with acute liver disease. Anti-HAV-negative serum specimens were collected from normal blood donors. All sera were initially tested by commercially available kit for the presence of anti-HAV activity (HAVAB and HAVAB-M, Abbott Laboratories, Abbott Park, Ill.)
# (§2) Synthetic peptides (110 ml) at a concentration of 10 mg/ml in 0.1 M phosphate-buffered saline (PBS), pH 7.5, were adsorbed to microtiter wells (Immulon II, Dynatech Laboratories, Inc.) at room temperature for 12 h. Sera were diluted in PBS containing 0.1% Tween 20 and 10% normal goat serum (PBS-T) and 100 ml were added to each well, incubated for 60 min at 37E C, and washed with PBS containing Tween-20. […] Two different cutoffs were established for experiments 1 and 2. In experiment 1, the cutoff, expressed as a P/N ratio and equal to 3.0, was statistically established as the mean of negative controls plus at least 3.5 standard deviations (SD) above the mean, where P represents the optical density value at 493 nm (OD493) of anti-HAV-positive specimens and N represents the optical density value of negative controls. In experiment 2, a different cutoff was used to ensure statistical reliability and accurate interpretation of positive results. In this case, in addition to anti-HAV-negative sera, two irrelevant synthetic peptides were used as supplemental negative controls to determine the degree of nonspecific binding of anti-HAV sera to synthetic peptides. One cutoff, expressed as a P/N ratio and equal to 3.0, corresponded to the mean of negative serum controls plus at least 3.5 SD above the mean. A second cutoff was also expressed as a P/N ratio, where P represents the optical density value at 493 nm (OD493) for HAV peptides immunoreacting with anti-HAV-positive specimens and N represents the optical density value obtained with the irrelevant peptides. The second cutoff was equal 2.0 and corresponded to the mean of OD values obtained with the irrelevant peptides plus at least 3.5 SD above the mean. Synthetic peptides were considered immunoreactive with anti-HAV serum specimens only when both cutoffs were satisfied.
# anti-HAV-positive sera = assay: EIA for anti-HAV: synthetic peptides adsorbed to wells, reacted with anti-HAV-positive acute sera; assay type: binding, human; settings: for Reactivity with acute sera (reactive/tested): experiment 1: sera 1:100, anti-human IgG-HRP, cutoff P/N 3.0; for Reactivity with acute sera (percent of sera reactive): experiment 1: sera 1:100, cutoff P/N 3.0; for P/N for acute sera (mean) / P/N for acute sera (range, in parentheses): experiment 1, OD493 positive/negative ratio of reactive sera
# From the text: as §1, §2
Sequence,Reactivity with negative sera (reactive/tested) (anti-HAV-negative sera),Reactivity with acute sera (reactive/tested) (anti-HAV-positive sera),Reactivity with acute sera (percent of sera reactive) (anti-HAV-positive sera) [%],P/N for acute sera (mean) (anti-HAV-positive sera),"P/N for acute sera (range, in parentheses) (anti-HAV-positive sera)",immunoreactivity with anti-HAV-positive sera (in words) (anti-HAV-positive sera),mean P/N ratio with anti-HAV-positive sera (anti-HAV-positive sera),percent of (IgM) anti-HAV-positive sera immunoreactive with peptide (anti-HAV-positive sera)
GQKIVDEFKKLGMTATSADK [YK-1428],0/27,1/41,2.4,7.28,,,,
NILKDNQQKIEKAIEEADEF [YK-1341],1/51,3/48,6.3,5.23,(3.44-8.26),,,
MEEKATYVHKKNDGTTVDLT [YK-1388],0/27,4/41,9.8,4.29,(3.99-4.7),,,
EDPVLAKKVPETFPELKPGE [YK-1272],1/46,6/41,14.6,5.4,(4.87-6.12),,,
KNPHNDMLNVNLAKTNDAIK [YK-1363],0/41,5/41,12.2,5.96,(5.31-6.33),,,
MSRIAAGDLESSVDDPRSEE [YK-1312],2/51,13/48,27.1,8.7,(4.44-25.9),,,
DKPGSKKTQGEKFFLIHSAD [YK-1212],0/46,3/41,7.3,3.5,(3.04-3.96),,,
VAKLVTQEMFQNIDKKIESQ [YK-1393],1/27,24/41,58.5,10.15,(4.64-16.36),very broad and strong antigenic reactivity,10.15,58.5%
KTMIRFGDVGLDLDFSAFDA [YK-1418],1/27,6/41,14.6,4.5,(3.35-6.21),,,
RIMKVEFTQCSMNVVSKTLF [YK-1394],3/27,13/41,31.7,6.98,(4.05-12.93),,,
EPLRTSVDKPGSKKTQGEKF [YK-1211],0/48,21/46,45.7,9.33,(3.37-27.92),,,
FDFQVFPTKYHSGRLLFCFV [YK-1249],0/48,18/46,39.1,5.03,(3.07-7.03),broadly and strongly immunoreactive,,
QFPFNASDSVGQQIKVIPVD [YK-1241],0/46,1/41,2.4,3.56,,Very weakly reactive,,
SEKTIWSLIAWQRSNAEFEQ [YK-1434],1/27,11/41,26.8,7.47,(3.85-16.03),,,
QNVPDPQVGITTMKDLKGKA [YK-1266],0/48,14/46,30.4,8.25,(3.27-18.30),,,
MLSKYSLPIVEEPEDYKEAS [YK-1399],1/27,5/41,12.2,6.86,(4.05-16.46),,,
HTYARFGIEIQVQINPTPFQ [YK-1216],4/46,23/41,56.1,5.3,(3.42-10.79),,,
LYNEQFAVQGLLRYHTYARF [YK-1215],0/46,10/41,24.4,5.29,(3.41-8.83),not found immunoreactive,,
DVVLMKVPTIPKFRDITQHF [YK-1382],0/27,1/41,2.4,8.4,,,,
VIQQLNQDEHSHIIGLLRVM [YK-1334],2/51,5/48,10.4,4.27,(3.16-5.27),marginally immunoreactive,,
SVTEQSEFYFPRAPLNSNAM [YK-1308],0/51,1/48,2.1,3.32,,,,
VASHVRVNVYLSAINLECFA [YK-1261],1/46,16/41,39.0,5.27,(3.72-7.9),broadly and strongly immunoreactive,,
HFKDPQYPVWELTIRVWSEL [YK-1222],0/46,2/41,4.9,4.29,,,,
QRLKYAQEELSNEVLPPPRKMKGLF [YK-1665],,,,,,greater immunoreactivity than Peptide No. YK-1317,,
WLNPKKINLADRMLGLSGVQEIKEQ [YK-1757],,,,,,very strong antigenically reactive,,
SAVAEFFQSFPSGEPSNSKLSGFFQ [YK-1832],,,,,,,,about 86.0%
